The values below come from patent publication US11331369B2, “Endoparasitic depsipeptides” (Zoetis Services LLC, priority 2017, dated 2022).

Bounds are passed on as bounds.

Holding throughout (assay type): cell-based
The subject of assay [1] is 4th stage larvae (L4) of Dirofilaria immitis. In words: Dirofilaria immitis, L4 Stage (DiL4) In Vitro Assay. The following applies: Dirofilaria immitis, 72 h, read-out: DiL4 Minimum Effective Dose (MED), approximately 72 hours incubation; L4 larvae assessed for survival or paralysis.
For assay [2], the system named is microfilariae of Dirofilaria immitis. In words: Dirofilaria immitis, Microfilaria (DiMF) In vitro Assay. The settings on record: 72 h, read-out: DiMF Minimum Effective Dose (MED), approximately 72 hours incubation, microfilariae assessed for survival or paralysis.
Assay [3] concerns third stage larvae of Haemonchus contortus. The assay can be described thus: Haemonchus contortus L3 (HcL3) Assay. The settings on record: 96 h, read-out: HcL3 Minimum Effective Dose (MED).

Turning to `CC(C)C[C@H]1C(=O)O[C@H](Cc2ccc(Cn3nccc3C3(C)COC3)cc2)C(=O)N(C)[C@@H](CC(C)C)C(=O)O[C@H](C)C(=O)N(C)[C@@H](CC(C)C)C(=O)O[C@H](Cc2ccc(Cn3nccc3C3(C)COC3)cc2)C(=O)N(C)[C@@H](CC(C)C)C(=O)O[C@H](C)C(=O)N1C` [Example 1b-221, (3S,6R,9S,12R,15S,18R,21S,24R)-3,9,15,21-tetraisobutyl-4,6,10,16,18,22-hexamethyl-12,24-bis(4-((5-(3-methyloxetan-3-yl)-1H-pyrazol-1-yl)methyl)benzyl)-1,7,13,19-tetraoxa-4,10,16,22-tetraazacyclotetracosan-2,5,8,11,14,17,20,23-octaone], the minimal effective concentration was 0.001 to 0.01 µM in assay [1], 0.001 to 0.01 µM in assay [2] and 1 to 10 µM in assay [3].
Regarding `CC(C)C[C@H]1C(=O)O[C@H](Cc2ccc(Cn3nccc3C3CC3C)cc2)C(=O)N(C)[C@@H](CC(C)C)C(=O)O[C@H](C)C(=O)N(C)[C@@H](CC(C)C)C(=O)O[C@H](Cc2ccc(Cn3nccc3C3CC3C)cc2)C(=O)N(C)[C@@H](CC(C)C)C(=O)O[C@H](C)C(=O)N1C` (stereo partly drawn) [Example 1b-222, (3S,6R,9S,12R,15S,18R,21S,24R)-3,9,15,21-tetraisobutyl-4,6,10,16,18,22-hexamethyl-12,24-bis(4-((5-(2-methylcyclopropyl)-1H-pyrazol-1-yl)methyl)benzyl)-1,7,13,19-tetraoxa-4,10,16,22-tetraazacyclotetracosan-2,5,8,11,14,17,20,23-octaone], the minimal effective concentration in assay [1] is 0.0001 to 0.001 µM; in assay [2], 0.01 to 0.1 µM; in assay [3], at most 1 µM.
On to `CC(C)C[C@H]1C(=O)O[C@H](Cc2ccc(C3(n4cc(Cl)cn4)CCC3)cc2)C(=O)N(C)[C@@H](CC(C)C)C(=O)O[C@H](C)C(=O)N(C)[C@@H](CC(C)C)C(=O)O[C@H](Cc2ccc(C3(n4cc(Cl)cn4)CCC3)cc2)C(=O)N(C)[C@@H](CC(C)C)C(=O)O[C@H](C)C(=O)N1C` [Example 1c-2, (3S,6R,9S,12R,15S,18R,21S,24R)-6,18-bis(4-(1-(4-chloro-1H-pyrazol-1-yl)cyclobutyl)benzyl)-3,9,15,21-tetraisobutyl-4,10,12,16,22,24-hexamethyl-1,7,13,19-tetraoxa-4,10,16,22-tetraazacyclotetracosan-2,5,8,11,14,17,20,23-octaone], for which the minimal effective concentration was at most 0.0001 µM in assay [1], 0.001 to 0.01 µM in assay [2] and at most 1 µM in assay [3].
As to `CC(C)C[C@H]1C(=O)O[C@H](Cc2ccc(C(C3CC3)n3cc(OC(C)C)cn3)cc2)C(=O)N(C)[C@@H](CC(C)C)C(=O)O[C@H](C)C(=O)N(C)[C@@H](CC(C)C)C(=O)O[C@H](Cc2ccc(C(C3CC3)n3cc(OC(C)C)cn3)cc2)C(=O)N(C)[C@@H](CC(C)C)C(=O)O[C@H](C)C(=O)N1C` (stereo partly drawn) [Example 1c-5, (3S,6R,9S,12R,15S,18R,21S,24R)-6,18-bis(4-(cyclopropyl(4-isopropoxy-1H-pyrazol-1-yl)methyl)benzyl)-3,9,15,21-tetraisobutyl-4,10,12,16,22,24-hexamethyl-1,7,13,19-tetraoxa-4,10,16,22-tetraazacyclotetracosan-2,5,8,11,14,17,20,23-octaone], the minimal effective concentration is 0.0001 to 0.001 µM in assay [1], 0.001 to 0.01 µM in assay [2] and at most 1 µM in assay [3].
For the compound `CC(C)C[C@H]1C(=O)O[C@H](Cc2ccc(Cn3cc(Br)cn3)cc2)C(=O)N(C)[C@@H](CC(C)C)C(=O)O[C@H](C)C(=O)N(C)[C@@H](CC(C)C)C(=O)O[C@H](Cc2ccccc2)C(=O)N(C)[C@@H](CC(C)C)C(=O)O[C@H](C)C(=O)N1C` [Example 2-22, (3S,6R,9S,12R,15S,18R,21S,24R)-6-benzyl-18-(4-((4-bromo-1H-pyrazol-1-yl)methyl)benzyl)-3,9,15,21-tetraisobutyl-4,10,12,16,22,24-hexamethyl-1,7,13,19-tetraoxa-4,10,16,22-tetraazacyclotetracosan-2,5,8,11,14,17,20,23-octaone], the minimal effective concentration in assay [1] lay within 0.0001 to 0.001 µM; in assay [2], 0.001 to 0.01 µM; in assay [3] it was 1 to 10 µM.
The like results for `CC(C)C[C@H]1C(=O)O[C@H](Cc2ccc(Cn3cc(F)cn3)cc2)C(=O)N(C)[C@@H](CC(C)C)C(=O)O[C@H](C)C(=O)N(C)[C@@H](CC(C)C)C(=O)O[C@H](Cc2ccccc2)C(=O)N(C)[C@@H](CC(C)C)C(=O)O[C@H](C)C(=O)N1C` [Example 2-28, (3S,6R,9S,12R,15S,18R,21S,24R)-6-benzyl-18-(4-((4-fluoro-1H-pyrazol-1-yl)methyl)benzyl)-3,9,15,21-tetraisobutyl-4,10,12,16,22,24-hexamethyl-1,7,13,19-tetraoxa-4,10,16,22-tetraazacyclotetracosan-2,5,8,11,14,17,20,23-octaone] were, in that order, 0.0001 to 0.001 µM, 0.001 to 0.01 µM and 1 to 10 µM.
With `C#Cc1cnn(Cc2ccc(C[C@H]3OC(=O)[C@H](CC(C)C)N(C)C(=O)[C@@H](C)OC(=O)[C@H](CC(C)C)N(C)C(=O)[C@@H](Cc4ccccc4)OC(=O)[C@H](CC(C)C)N(C)C(=O)[C@@H](C)OC(=O)[C@H](CC(C)C)N(C)C3=O)cc2)c1` [Example 2-51, (3S,6R,9S,12R,15S,18R,21S,24R)-6-benzyl-18-(4-((4-ethynyl-1H-pyrazol-1-yl)methyl)benzyl)-3,9,15,21-tetraisobutyl-4,10,12,16,22,24-hexamethyl-1,7,13,19-tetraoxa-4,10,16,22-tetraazacyclotetracosan-2,5,8,11,14,17,20,23-octaone], the minimal effective concentration in assay [1] is 0.0001 to 0.001 µM; in assay [2] it was 0.001 to 0.01 µM; in assay [3], 1 to 10 µM.
Regarding `CC(C)C[C@H]1C(=O)O[C@H](Cc2ccc(Cn3nccc3C3CC3)cc2)C(=O)N(C)[C@@H](CC(C)C)C(=O)O[C@H](C)C(=O)N(C)[C@@H](CC(C)C)C(=O)O[C@H](Cc2ccccc2)C(=O)N(C)[C@@H](CC(C)C)C(=O)O[C@H](C)C(=O)N1C` [Example 2-66, (3S,6R,9S,12R,15S,18R,21S,24R)-6-benzyl-18-(4-((5-cyclopropyl-1H-pyrazol-1-yl)methyl)benzyl)-3,9,15,21-tetraisobutyl-4,10,12,16,22,24-hexamethyl-1,7,13,19-tetraoxa-4,10,16,22-tetraazacyclotetracosan-2,5,8,11,14,17,20,23-octaone], the figures for the minimal effective concentration in assay [1], in assay [2] and in assay [3] were 0.0001 to 0.001 µM, 0.001 to 0.01 µM and 1 to 10 µM, respectively.
Consider `CC(C)C[C@H]1C(=O)O[C@H](Cc2ccc(Cn3nccc3C(C)C)cc2)C(=O)N(C)[C@@H](CC(C)C)C(=O)O[C@H](C)C(=O)N(C)[C@@H](CC(C)C)C(=O)O[C@H](Cc2ccccc2)C(=O)N(C)[C@@H](CC(C)C)C(=O)O[C@H](C)C(=O)N1C` [Example 2-69, (3S,6R,9S,12R,15S,18R,21S,24R)-6-benzyl-3,9,15,21-tetraisobutyl-18-(4-((5-isopropyl-1H-pyrazol-1-yl)methyl)benzyl)-4,10,12,16,22,24-hexamethyl-1,7,13,19-tetraoxa-4,10,16,22-tetraazacyclotetracosan-2,5,8,11,14,17,20,23-octaone], for which the minimal effective concentration is 0.0001 to 0.001 µM in assay [1], 0.001 to 0.01 µM in assay [2] and 1 to 10 µM in assay [3].
Turning to `CC(C)C[C@H]1C(=O)O[C@H](Cc2ccc(Cn3cnc(Br)c3)cc2)C(=O)N(C)[C@@H](CC(C)C)C(=O)O[C@H](C)C(=O)N(C)[C@@H](CC(C)C)C(=O)O[C@H](Cc2ccc(Cn3cnc(Br)c3)cc2)C(=O)N(C)[C@@H](CC(C)C)C(=O)O[C@H](C)C(=O)N1C` [Example 6-12, (3S,6R,9S,12R,15S,18R,21S,24R)-6,18-bis(4-((4-bromo-1H-imidazol-1-yl)methyl)benzyl)-3,9,15,21-tetraisobutyl-4,10,12,16,22,24-hexamethyl-1,7,13,19-tetraoxa-4,10,16,22-tetraazacyclotetracosan-2,5,8,11,14,17,20,23-octaone], the minimal effective concentration in assay [1] was at most 0.0001 µM; in assay [2], 0.001 to 0.01 µM; in assay [3], 1 to 10 µM.
Take `CC(C)C[C@H]1C(=O)O[C@H](Cc2cccc(Cn3ccnc3Cl)c2)C(=O)N(C)[C@@H](CC(C)C)C(=O)O[C@H](C)C(=O)N(C)[C@@H](CC(C)C)C(=O)O[C@H](Cc2ccc(Cn3ccnc3Cl)cc2)C(=O)N(C)[C@@H](CC(C)C)C(=O)O[C@H](C)C(=O)N1C` [Example 7-9, (3S,6R,9S,12R,15S,18R,21S,24R)-6-(3-((2-chloro-1H-imidazol-1-yl)methyl)benzyl)-18-(4-((2-chloro-1H-imidazol-1-yl)methyl)benzyl)-3,9,15,21-tetraisobutyl-4,10,12,16,22,24-hexamethyl-1,7,13,19-tetraoxa-4,10,16,22-tetraazacyclotetracosan-2,5,8,11,14,17,20,23-octaone]: the minimal effective concentration lay within 0.0001 to 0.001 µM in assay [1], 0.001 to 0.01 µM in assay [2] and 1 to 10 µM in assay [3].
The like results for `CC(C)C[C@H]1C(=O)O[C@H](Cc2ccc(Cn3ccnc3Br)cc2)C(=O)N(C)[C@@H](CC(C)C)C(=O)O[C@H](C)C(=O)N(C)[C@@H](CC(C)C)C(=O)O[C@H](Cc2ccccc2)C(=O)N(C)[C@@H](CC(C)C)C(=O)O[C@H](C)C(=O)N1C` [Example 8-3, (3S,6R,9S,12R,15S,18R,21S,24R)-6-benzyl-18-[[4-[(2-bromoimidazol-1-yl)methyl]phenyl]methyl]-3,9,15,21-tetraisobutyl-4,10,12,16,22,24-hexamethyl-1,7,13,19-tetraoxa-4,10,16,22-tetrazacyclotetracosane-2,5,8,11,14,17,20,23-octaone] were, in that order, 0.0001 to 0.001 µM, 0.001 to 0.01 µM and 1 to 10 µM.
